# pIC50: −log10 of the molar value. Like-named read-outs stand apart in the source and are kept apart here.
# Legend:
# TMD8 cells = assay: Viability assay of TMD8 cells (CTG); format: cell-based; details: cell viability, 120 hours
# Description: (§1) The in vitro antiproliferative activity of the compounds of the present disclosure against TMD8 cells and OCI-LY10 cells was assayed using CTG (Cell Titer-Glo) luminescent cell viability assay. The specific assay methods were as follows. • a) TMD8 cells were cultured at 37 °C and 5% CO2 in complete medium [RPMI 1640 (supplier Gibco, product number 22400-089) + 10% FBS (supplier Gibco, product number 10091-148) + 1% P/S (supplier Hyclone, product number SV30010)]; OCI-LY10 cells were cultured at 37 °C and 5% CO2 in medium [IMDM (supplier Gibco, product number 31980-030) + 20% FBS (supplier Gibco, product number 10091-148) + 1% P/S (supplier Hyclone, product number SV30010) + 0.05 mM 2-Mercaptoethanol (supplier Sigma, product number M6250)]. • b) Cells in the logarithmic growth phase were harvested, and the total cell count and viable cell count were determined using a Vi-cell cell counter (supplier: BECKMAN COULTER, product number 2785198). • c) Cell density was adjusted using complete culture medium. Then, the cells were inoculated at 1500 cells per well in a 384-well cell culture plate (supplier Greiner, product number 781090). • d) The cells in the 384-well plate were cultured at 37 °C and 5% CO2 overnight. • e) A 10-fold drug solution was prepared, and then the serially diluted compound was transferred to the corresponding assay wells of the 384-well cell plate so that the final assay concentration was 1000 nM, with 9 concentrations, 3-fold dilutions, and triplicates for each drug concentration. • f) The cells in the 384-well plate with the drug added were cultured at 37 °C and 5% CO2 for another 120 hours. • g) The cells were removed from the incubator, and allowed to equilibrate at room temperature for 30 minutes. The cell state and compound solubility were observed under a microscope. • h) An equal volume of CellTiterGlo solution (supplier Promega, product number G7573) was added to each well, and the plate was incubated at room temperature for 30 minutes. • i) Then, the luminescent signal value was detected on an EnVision instrument (supplier PerkinElmer, product number 2441715).
# (§2) The data were analyzed using XL-fit software (supplier: ID Business Solutions Ltd., software version: XL fit 5.5.0.5). Nonlinear regression was performed using X=Log(X), and the X values were transformed using a four-parameter Logistic model 205, from which the IC50 values were calculated. Inhibition rate % = (Max−samplevalue)/Max*100.(Max:DMSOnegativecontrol) [formula]
# OCI-LY10 cells = assay: Viability assay of OCI-LY10 cells (CTG); format: cell-based; details: cell viability, read-out: OCl-Ly10
# Description: as §1, §2
"pIC50 (OCI-LY10 cells; Homo sapiens, OCI-Ly10, 120 h)",pIC50 (OCI-LY10 cells; 120 hours),SMILES,pIC50 (TMD8 cells; Homo sapiens),pIC50 (TMD8 cells)
7.30 to 8.00,–,"COc1ccc(F)cc1C(=O)NCc1ccc(-c2nc(C(C)C(F)(F)F)cc3[nH]nc(N)c23)cc1 (single isomer, unassigned) [Example 2, N-(4-(3-amino-6-(1,1,1-trifluoropropan-2-yl)-1H-pyrazolo[4,3-c]pyridin-4-yl)benzyl)-5-fluoro-2-methoxybenzamide]",8.00 to 8.30,–
–,7.30 to 8.00,"COc1ccc(F)cc1C(=O)NCc1ccc(-c2nc(C(C)C(F)(F)F)cc3[nH]nc(N)c23)cc1 (single isomer, unassigned) [Example 3, N-(4-(3-amino-6-(1,1,1-trifluoropropan-2-yl)-1H-pyrazolo[4,3-c]pyridin-4-yl)benzyl)-5-fluoro-2-methoxybenzamide]",–,8.00 to 8.30
8.00 to 8.30,–,"COc1ccc(F)cc1C(=O)NCc1ccc(-c2nc(C(C)C(F)(F)F)c(-c3ccn(C)n3)c3[nH]nc(N)c23)cc1 (single isomer, unassigned) [Example 6-1, N-(4-(3-amino-7-(1-methyl-1H-pyrazol-3-yl)-6-(1,1,1-trifluoropropan-2-yl)-1H-pyrazolo[4,3-c]pyridin-4-yl)benzyl)-5-fluoro-2-methoxybenzamide]",≥ 8.30,–
–,≥ 8.30,"COc1ccc(F)cc1C(=O)NCc1ccc(-c2nc(C(C)C(F)(F)F)c(-c3ccn(C)n3)c3[nH]nc(N)c23)cc1 (single isomer, unassigned) [Example 6-2, N-(4-(3-amino-7-(1-methyl-1H-pyrazol-3-yl)-6-(1,1,1-trifluoropropan-2-yl)-1H-pyrazolo[4,3-c]pyridin-4-yl)benzyl)-5-fluoro-2-methoxybenzamide]",–,≥ 8.30
≥ 8.30,–,"COc1ccc(F)cc1C(=O)NCc1ccc(-c2nc(C(C)C(F)(F)F)c(-c3ncccn3)c3[nH]nc(N)c23)cc1 (single isomer, unassigned) [Example 7-1, N-(4-(3-amino-7-(pyrimidin-2-yl)-6-(1,1,1-trifluoropropan-2-yl)-1H-pyrazolo[4,3-c]pyridin-4-yl)benzyl)-5-fluoro-2-methoxybenzamide]",≥ 8.30,–
–,≥ 8.30,"COc1ccc(F)cc1C(=O)NCc1ccc(-c2nc(C(C)C(F)(F)F)c(-c3ncccn3)c3[nH]nc(N)c23)cc1 (single isomer, unassigned) [Example 7-2, N-(4-(3-amino-7-(pyrimidin-2-yl)-6-(1,1,1-trifluoropropan-2-yl)-1H-pyrazolo[4,3-c]pyridin-4-yl)benzyl)-5-fluoro-2-methoxybenzamide]",–,≥ 8.30
8.00 to 8.30,–,"COc1ccc(F)cc1C(=O)NCc1ccc(-c2nc(C(C)C(F)(F)F)c(-c3cc(C)[nH]n3)c3[nH]nc(N)c23)cc1 (stereo not shown) [Example 9, N-(4-(3-amino-7-(5-methyl-1H-pyrazol-3-yl)-6-(1,1,1-trifluoropropan-2-yl)-1H-pyrazolo[4,3-c]pyridin-4-yl)benzyl)-5-fluoro-2-methoxybenzamide]",≥ 8.30,–
8.00 to 8.30,–,"COc1ccc(F)cc1C(=O)NCc1ccc(-c2ncc(-c3ccccn3)c3[nH]nc(N)c23)cc1 [Example 15, N-(4-(3-amino-7-(pyridin-2-yl)-1H-pyrazolo[4,3-c]pyridin-4-yl)benzyl)-5-fluoro-2-methoxybenzamide]",≥ 8.30,–
7.30 to 8.00,–,"COc1ccc(F)cc1C(=O)NCc1ccc(-c2ncc(-c3ncccn3)c3[nH]nc(N)c23)cc1 [Example 17, N-(4-(3-amino-7-(pyrimidin-2-yl)-1H-pyrazolo[4,3-c]pyridin-4-yl)benzyl)-5-fluoro-2-methoxybenzamide]",8.00 to 8.30,–
7.30 to 8.00,–,"COc1ccc(F)cc1C(=O)NCc1ccc(-c2ncc(-c3cnccn3)c3[nH]nc(N)c23)cc1 [Example 18, N-(4-(3-amino-7-(pyrazin-2-yl)-1H-pyrazolo[4,3-c]pyridin-4-yl)benzyl)-5-fluoro-2-methoxybenzamide]",8.00 to 8.30,–
7.30 to 8.00,–,COc1ccc(F)cc1C(=O)NCc1ccc(-c2ncc(-c3ccncn3)c3[nH]nc(N)c23)cc1 [Example 19],8.00 to 8.30,–
8.00 to 8.30,–,"COc1ccc(F)cc1C(=O)NCc1ccc(-c2ncc(-c3ccc(F)cn3)c3[nH]nc(N)c23)cc1 [Example 21, N-(4-(3-amino-7-(5-fluoropyridin-2-yl)-1H-pyrazolo[4,3-c]pyridin-4-yl)benzyl)-5-fluoro-2-methoxybenzamide]",≥ 8.30,–
≥ 8.30,–,"COc1ccc(F)cc1C(=O)NCc1ccc(-c2ncc(-c3ccn(C)n3)c3[nH]nc(N)c23)cc1 [Example 23, N-(4-(3-amino-7-(1-methyl-1H-pyrazol-3-yl)-1H-pyrazolo[4,3-c]pyridin-4-yl)benzyl)-5-fluoro-2-methoxybenzamide]",≥ 8.30,–
7.30 to 8.00,–,"COc1ccc(F)cc1C(=O)NCc1ccc(-c2ncc(-c3ccc(C(F)(F)F)cn3)c3[nH]nc(N)c23)cc1 [Example 24, N-(4-(3-amino-7-(5-(trifluoromethyl)pyridin-2-yl)-1H-pyrazolo[4,3-c]pyridin-4-yl)benzyl)-5-fluoro-2-methoxybenzamide]",≥ 8.30,–
≥ 8.30,–,"COc1ccc(F)cc1C(=O)NCc1ccc(-c2ncc(-c3ccc(S(C)(=O)=O)cn3)c3[nH]nc(N)c23)cc1 [Example 35, N-(4-(3-amino-7-(5-(methylsulfonyl)pyridin-2-yl)-1H-pyrazolo[4,3-c]pyridin-4-yl)benzyl)-5-fluoro-2-methoxybenzamide]",≥ 8.30,–
7.30 to 8.00,–,"COc1ccc(F)cc1C(=O)NCc1ccc(-c2nc(C)c(-c3ncccn3)c3[nH]nc(N)c23)cc1 [Example 84, N-(4-(3-amino-6-methyl-7-(pyrimidin-2-yl)-1H-pyrazolo[4,3-c]pyridin-4-yl)benzyl)-5-fluoro-2-methoxybenzamide]",8.00 to 8.30,–
7.30 to 8.00,–,"COc1ccc(F)cc1C(=O)NCc1ccc(-c2nc(C(F)F)c(-c3ncccn3)c3[nH]nc(N)c23)cc1 [Example 85, N-(4-(3-amino-6-(difluoromethyl)-7-(pyrimidin-2-yl)-1H-pyrazolo[4,3-c]pyridin-4-yl)benzyl)-5-fluoro-2-methoxybenzamide]",≥ 8.30,–
≥ 8.30,–,"COc1ccc(F)cc1C(=O)NCc1ccc(-c2nc(C3CCSCC3)cc3[nH]nc(N)c23)cc1 [Example 91, N-(4-(3-amino-6-(tetrahydro-2H-thiopyran-4-yl)-1H-pyrazolo[4,3-c]pyridin-4-yl)benzyl)-5-fluoro-2-methoxybenzamide]",≥ 8.30,–
≥ 8.30,–,"C=CC(=O)N1CCCC(c2cc3[nH]nc(N)c3c(-c3ccc(CNC(=O)c4cc(F)ccc4OC)cc3)n2)C1 (stereo not shown) [Example 96, N-(4-(6-(1-acryloylpiperidin-3-yl)-3-amino-1H-pyrazolo[4,3-c]pyridin-4-yl)benzyl)-5-fluoro-2-methoxybenzamide]",≥ 8.30,–
≥ 8.30,–,"COc1ccc(F)cc1C(=O)NCc1ccc(-c2nc([C@H]3CC[C@H](CO)CC3)cc3[nH]nc(N)c23)cc1 [Example 117, N-(4-(3-amino-6-((1r,4r)-4-(hydroxymethyl)cyclohexyl)-1H-pyrazolo[4,3-c]pyridin-4-yl)benzyl)-5-fluoro-2-methoxybenzamide]",≥ 8.30,–
